Test results: patent US10968225B2, “Compounds and compositions for the treatment of cystic fibrosis” (Fondazione Istituto Italiano Di Tecnologia, priority 2017, dated 2021)

Molecular target: T1, mutant CFTR (Homo sapiens, UniProt P13569, DEL508-508)
T1 construct: expressed in transfected cells
Test: Fluorescence (HS-YFP) assay for CFTR activity, corrector assay
Assay type: cell-based
Details: CFBE41o- and FRT cells with stable expression of mutant CFTR, read-out: activity (EC50)

T1 sequence (P13569 with tags, fused parts or gaps DEL508-508): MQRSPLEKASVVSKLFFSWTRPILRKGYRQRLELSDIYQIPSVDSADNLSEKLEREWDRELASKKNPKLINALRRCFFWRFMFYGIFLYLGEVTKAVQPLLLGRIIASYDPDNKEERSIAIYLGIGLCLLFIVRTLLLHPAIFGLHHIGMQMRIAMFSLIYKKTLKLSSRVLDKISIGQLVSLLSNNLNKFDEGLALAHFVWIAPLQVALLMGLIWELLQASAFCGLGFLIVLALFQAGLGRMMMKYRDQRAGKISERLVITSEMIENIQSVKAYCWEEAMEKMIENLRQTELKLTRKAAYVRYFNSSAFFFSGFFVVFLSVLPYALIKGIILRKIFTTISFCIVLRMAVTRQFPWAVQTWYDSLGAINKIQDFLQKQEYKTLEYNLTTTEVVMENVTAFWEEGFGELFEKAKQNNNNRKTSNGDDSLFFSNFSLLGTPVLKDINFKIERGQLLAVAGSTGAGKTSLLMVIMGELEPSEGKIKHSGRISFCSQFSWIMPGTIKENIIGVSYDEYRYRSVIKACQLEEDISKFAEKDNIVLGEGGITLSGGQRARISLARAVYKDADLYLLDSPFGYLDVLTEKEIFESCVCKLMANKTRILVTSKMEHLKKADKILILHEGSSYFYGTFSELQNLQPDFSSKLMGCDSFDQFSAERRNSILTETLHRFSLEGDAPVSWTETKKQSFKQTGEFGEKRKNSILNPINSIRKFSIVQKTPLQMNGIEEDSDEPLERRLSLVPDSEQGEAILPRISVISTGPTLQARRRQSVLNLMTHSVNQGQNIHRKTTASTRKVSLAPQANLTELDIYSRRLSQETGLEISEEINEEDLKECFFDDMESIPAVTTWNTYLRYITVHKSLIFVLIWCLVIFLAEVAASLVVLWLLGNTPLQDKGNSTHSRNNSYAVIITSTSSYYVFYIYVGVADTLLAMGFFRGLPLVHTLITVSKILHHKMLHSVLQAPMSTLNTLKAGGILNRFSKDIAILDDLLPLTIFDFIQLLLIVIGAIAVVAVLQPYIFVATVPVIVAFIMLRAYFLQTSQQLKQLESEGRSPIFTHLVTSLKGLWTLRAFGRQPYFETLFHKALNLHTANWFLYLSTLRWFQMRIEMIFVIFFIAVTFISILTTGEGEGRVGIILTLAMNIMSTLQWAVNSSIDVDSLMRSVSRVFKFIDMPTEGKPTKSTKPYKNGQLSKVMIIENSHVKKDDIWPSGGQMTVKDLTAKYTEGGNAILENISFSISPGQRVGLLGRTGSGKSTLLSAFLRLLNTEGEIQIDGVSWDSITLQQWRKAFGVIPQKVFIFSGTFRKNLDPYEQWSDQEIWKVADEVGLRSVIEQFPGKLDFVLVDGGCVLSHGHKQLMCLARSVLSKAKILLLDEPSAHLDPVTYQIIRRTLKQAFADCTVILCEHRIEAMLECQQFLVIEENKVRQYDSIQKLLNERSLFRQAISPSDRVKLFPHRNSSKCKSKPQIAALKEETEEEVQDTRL

Compound: [2H]C([2H])([2H])N(C(=O)c1cccc(-n2nc(C(F)(F)F)c3c2C(Oc2ccc(C(=O)O)cc2)CCC3)c1)c1ccc2c(c1)OC(F)(F)O2 (stereo not drawn) [Compound 155, 4-[[1-[3-[(2,2-Difluoro-1,3-benzodioxol-5-yl)-(trideuteriomethyl)carbamoyl]phenyl]-3-(trifluoromethyl)-4,5,6,7-tetrahydroindazol-7-yl]oxy]benzoic acid]
- EC50: < 1000 nM

Compound: Cc1nc2ccc(N(C)C(=O)c3cccc(-n4nc(C(F)(F)F)c5c4C(Oc4ccc(C(=O)O)cc4)CCC5)c3)cc2o1 (stereo not drawn) [Compound 157, 4-[[1-[3-[Methyl-(2-methyl-1,3-benzoxazol-6-yl)carbamoyl]phenyl]-3-(trifluoromethyl)-4,5,6,7-tetrahydroindazol-7-yl]oxy]benzoic acid]
- EC50: < 1000 nM

Compound: Cc1nc2ncc(N(C)C(=O)c3cccc(-n4nc(C(F)(F)F)c5c4C(Oc4ccc(C(=O)O)cc4)CCC5)c3)cc2o1 (stereo not drawn) [Compound 159, 4-[[1-[3-[Methyl-(2-methyloxazolo[4,5-b]pyridin-6-yl)carbamoyl]phenyl]-3-(trifluoromethyl)-4,5,6,7-tetrahydroindazol-7-yl]oxy]benzoic acid]
- EC50: 1000 to 2000 nM

Compound: COc1cc(OC2CCCc3c(C(F)(F)F)nn(-c4cccc(C(=O)N(C)c5ccc6c(c5)OC(F)(F)O6)c4)c32)ccc1C(=O)O (stereo not drawn) [Compound 161, 4-[[1-[3-[(2,2-Difluoro-1,3-benzodioxol-5-yl)-methyl-carbamoyl]phenyl]-3-(trifluoromethyl)-4,5,6,7-tetrahydroindazol-7-yl]oxy]-2-methoxy-benzoic acid]
- EC50: < 1000 nM

Compound: CN(C(=O)c1cccc(-n2nc(C(F)(F)F)c3c2C(Oc2ccc(C(N)=O)cc2)CCC3)c1)c1ccc2c(c1)OC(F)(F)O2 (stereo not drawn) [Compound 162, 3-[7-(4-Carbamoylphenoxy)-3-(trifluoromethyl)-4,5,6,7-tetrahydroindazol-1-yl]-N-(2,2-difluoro-1,3-benzodioxol-5-yl)-N-methyl-benzamide]
- EC50: < 1000 nM

Compound: CN(C(=O)c1cccc(-n2nc(C(F)(F)F)c3c2C(Oc2ccc(C(=O)O)nc2)CCC3)c1)c1ccc2c(c1)OC(F)(F)O2 (stereo not drawn) [Compound 164, 5-[[1-[3-[(2,2-Difluoro-1,3-benzodioxol-5-yl)-methyl-carbamoyl]phenyl]-3-(trifluoromethyl)-4,5,6,7-tetrahydroindazol-7-yl]oxy]pyridine-2-carboxylic acid]
- EC50: < 1000 nM

Compound: COc1cncc(N(C)C(=O)c2cccc(-n3nc(C(F)(F)F)c4c3C(Oc3ccc(C(=O)O)cc3)CCC4)c2)c1 (stereo not drawn) [Compound 166, 4-[[1-[3-[(5-Methoxy-3-pyridyl)-methyl-carbamoyl]phenyl]-3-(trifluoromethyl)-4,5,6,7-tetrahydroindazol-7-yl]oxy]benzoic acid]
- EC50: < 1000 nM

Compound: COc1ncc(N(C)C(=O)c2cccc(-n3nc(C(F)(F)F)c4c3C(Oc3ccc(C(=O)O)cc3)CCC4)c2)cn1 (stereo not drawn) [Compound 168, 4-[[1-[3-[(2-Methoxypyrimidin-5-yl)-methyl-carbamoyl]phenyl]-3-(trifluoromethyl)-4,5,6,7-tetrahydroindazol-7-yl]oxy]benzoic acid]
- EC50: < 1000 nM

Compound: CN(C(=O)c1cccc(-n2nc(C(F)(F)F)c3c2C(Oc2cccc(C(=O)O)c2)CCC3)c1)c1ccc2c(c1)OC(F)(F)O2 (stereo not drawn) [Compound 170, 3-[[1-[3-[(2,2-Difluoro-1,3-benzodioxol-5-yl)-methyl-carbamoyl]phenyl]-3-(trifluoromethyl)-4,5,6,7-tetrahydroindazol-7-yl]oxy]benzoic acid]
- EC50: < 1000 nM

Compound: Cc1nc2ccc(N(C)C(=O)c3cccc(-n4nc(C(F)(F)F)c5c4C(Oc4ccc(C(=O)O)cc4)CCC5)c3)cn2n1 (stereo not drawn) [Compound 172, 4-[[1-[3-[Methyl-(2-methyl-[1,2,4]triazolo[1,5-a]pyridin-6-yl)carbamoyl]phenyl]-3-(trifluoromethyl)-4,5,6,7-tetrahydroindazol-7-yl]oxy]benzoic acid]
- EC50: < 1000 nM

Compound: Cc1cc2ncc(N(C)C(=O)c3cccc(-n4nc(C(F)(F)F)c5c4C(Oc4ccc(C(=O)O)cc4)CCC5)c3)cn2n1 (stereo not drawn) [Compound 174, 4-[[1-[3-[Methyl-(2-methylpyrazolo[1,5-a]pyrimidin-6-yl)carbamoyl]phenyl]-3-(trifluoromethyl)-4,5,6,7-tetrahydroindazol-7-yl]oxy]benzoic acid]
- EC50: < 1000 nM

Compound: Cc1cc(OC2CCCc3c(C(F)(F)F)nn(-c4cccc(C(=O)N(C)c5ccc6c(c5)OC(F)(F)O6)c4)c32)ccc1C(=O)O (stereo not drawn) [Compound 176, 4-[[1-[3-[(2,2-Difluoro-1,3-benzodioxol-5-yl)-methyl-carbamoyl]phenyl]-3-(trifluoromethyl)-4,5,6,7-tetrahydroindazol-7-yl]oxy]-2-methyl-benzoic acid]
- EC50: < 1000 nM

Compound: CN(C(=O)c1cccc(-n2nc(C(F)(F)F)c3c2C(Oc2cncc(C(=O)O)c2)CCC3)c1)c1ccc2c(c1)OC(F)(F)O2 (stereo not drawn) [Compound 178, 5-[[1-[3-[(2,2-Difluoro-1,3-benzodioxol-5-yl)-methyl-carbamoyl]phenyl]-3-(trifluoromethyl)-4,5,6,7-tetrahydroindazol-7-yl]oxy]pyridine-3-carboxylic acid]
- EC50: < 1000 nM

Compound: CN(C(=O)c1cccc(-n2nc(C(F)(F)F)c3c2C(Oc2ccc(C(=O)O)cn2)CCC3)c1)c1ccc2c(c1)OC(F)(F)O2 (stereo not drawn) [Compound 180, 6-[[1-[3-[(2,2-Difluoro-1,3-benzodioxol-5-yl)-methyl-carbamoyl]phenyl]-3-(trifluoromethyl)-4,5,6,7-tetrahydroindazol-7-yl]oxy]pyridine-3-carboxylic acid]
- EC50: < 1000 nM

Compound: CN(C(=O)c1cccc(-n2nc(C(F)(F)F)c3c2C(Oc2cc(C(=O)O)ccn2)CCC3)c1)c1ccc2c(c1)OC(F)(F)O2 (stereo not drawn) [Compound 182, 2-[[1-[3-[(2,2-Difluoro-1,3-benzodioxol-5-yl)-methyl-carbamoyl]phenyl]-3-(trifluoromethyl)-4,5,6,7-tetrahydroindazol-7-yl]oxy]pyridine-4-carboxylic acid]
- EC50: < 1000 nM

Compound: CN(C(=O)c1cccc(-n2nc(C(F)(F)F)c3c2C(Oc2ccc(C(=O)O)cc2)COC3)c1)c1ccc2c(c1)OC(F)(F)O2 (stereo not drawn) [Compound 202, 4-[[1-[3-[(2,2-Difluoro-1,3-benzodioxol-5-yl)-methyl-carbamoyl]phenyl]-3-(trifluoromethyl)-6,7-dihydro-4H-pyrano[4,3-c]pyrazol-7-yl]oxy]benzoic acid]
- EC50: < 1000 nM

Compound: O=C(O)c1ccc(OC2CCCc3c(C(F)(F)F)nn(-c4cccc(C(=O)Nc5ccc6c(c5)OC(F)(F)O6)c4)c32)cc1 (stereo not drawn) [Compound 253, 4-[[1-[3-[(2,2-Difluoro-1,3-benzodioxol-5-yl)carbamoyl]phenyl]-3-(trifluoromethyl)-4,5,6,7-tetrahydroindazol-7-yl]oxy]benzoic acid]
- EC50: > 2000 nM

Compound: CN1Cc2c(C(F)(F)F)nn(-c3cccc(C(=O)N(C)c4ccc5c(c4)OC(F)(F)O5)c3)c2C(Oc2ccc(C(=O)O)cc2)C1 (stereo not drawn) [Compound 274, Ammonium 4-[[1-[3-[(2,2-difluoro-1,3-benzodioxol-5-yl)-methyl-carbamoyl]phenyl]-5-methyl-3-(trifluoromethyl)-6,7-dihydro-4H-pyrazolo[4,3-c]pyridin-7-yl]oxy]benzoate]
- EC50: < 1000 nM
